Assay results taken from ChEMBL document CHEMBL1125352, “Synthesis of biologically active taxol analogues with modified phenylisoserine side chains” (1992).

Assays:
Format in all cases: functional
[1] = Ratio of ED50 of taxol to ED50 from tubulin binding assay
Tubulin (Bos taurus) [2] = target: T1, Tubulin (Bos taurus) (UniProt Q6B856+Q862L2+Q862F3); experiment: Concentration to stimulate the assembly of tubulin into microtubules.
[3] = Ratio of ED50 of taxol to ED50 from cytotoxicity against B16 melanoma cell lines
B16 [4] = experiment: Cytotoxicity against B16 melanoma cell line.; conditions: Mus musculus, read-out: ED50 (the source's name)
Tubulin (Bos taurus) [5] = target: T1, Tubulin (Bos taurus); experiment: Concentration to stimulate the assembly of tubulin into microtubules at a dose of […]
B16 [6] = experiment: Cytotoxicity against B16 melanoma cell line.62% inhibition at 42 uM.; conditions: Mus musculus, read-out: ED50 (the source's name)
B16 [7] = experiment: Cytotoxicity against B16 melanoma cell line.40% inhibition at 1 uM; conditions: Mus musculus, read-out: ED50 (the source's name)

| Compound | Ratio [1] | ED50 (Tubulin (Bos taurus) [2]) | Ratio [3] | EC50 (B16 [4]) | ED50 (Tubulin (Bos taurus) [5]) | EC50 (B16 [6]) | EC50 (B16 [7]) |
| --- | --- | --- | --- | --- | --- | --- | --- |
| CC(=O)O[C@H]1C(=O)[C@@]2(C)[C@H]([C@H](OC(=O)c3ccccc3)[C@]3(O)C[C@H](OC(=O)[C@H](O)[C@@H](NC(=O)c4ccc(Cl)cc4)c4ccccc4)C(C)=C1C3(C)C)[C@]1(OC(C)=O)CO[C@@H]1C[C@@H]2O | 2.4 | 1.7 µM | 1.5 | 0.043 µM |  |  |  |
| CC(=O)O[C@H]1C(=O)[C@@]2(C)[C@H]([C@H](OC(=O)c3ccccc3)[C@]3(O)C[C@H](OC(=O)[C@H](O)[C@@H](NC(=O)c4ccccc4)c4ccc(Cl)cc4)C(C)=C1C3(C)C)[C@]1(OC(C)=O)CO[C@@H]1C[C@@H]2O | 1.9 | 1.3 µM | 2.2 | 0.061 µM |  |  |  |
| O=C(N[C@@H](c1ccccc1)[C@@H](O)C(=O)O)c1ccccc1 (relative stereo) | > 14 |  | >360 |  | > 10 µM | > 10 µM |  |
| CC(=O)O[C@H]1C(=O)[C@@]2(C)[C@H]([C@H](OC(=O)c3ccccc3)[C@]3(O)C[C@H](O)C(C)=C1C3(C)C)[C@]1(OC(C)=O)CO[C@@H]1C[C@@H]2O [BACCATIN III] | > 14 |  | >36 |  | > 10 µM |  | > 1 µM |
| CC(=O)O[C@H]1C(=O)[C@@]2(C)[C@H]([C@H](OC(=O)c3ccccc3)[C@]3(O)C[C@H](OC(=O)[C@H](O)[C@@H](NC(=O)c4ccccc4)c4ccccc4)C(C)=C1C3(C)C)[C@]1(OC(C)=O)CO[C@@H]1C[C@@H]2O [PACLITAXEL] | 1 | 0.7 µM | 1 | 0.028 µM |  |  |  |
